Results on three compounds are retold here after patent publication US9393199B2, “Methods and compositions for localized agent delivery” (Massachusetts Institute of Technology, priority 2008, dated 2016).

Series [1] deals with lineage−Sca-1+c-kit+ progenitor cells. Kind of series: Reconstitution by hematopoietic progenitor cell grafts in lethally irradiated recipients. As to conditions: 1.6 ng TWS119 at the time of transplantation. It is filed as in vivo. On the procedure: FIGS. 14A-D. Hematopoietic progenitor cells (referred to in the Figure as HSCs) carrying GSK-3β inhibitor-loaded nanoparticles reconstitute recipient animals with rapid kinetics following bone marrow transplants without affecting multilineage differentiation potential. (A, B) Engraftment kinetics of luciferase-transgenic HSC grafts in lethally-irradiated nontransgenic syngeneic recipients. Mice were treated with a single bolus injection of the GSK-3β inhibitor TWS119 (1.6 ng) on the day of transplantation, an equivalent TWS119 dose encapsulated in HSC-attached DNA-gel nanoparticles, or no exogenous agent. Transplanted mice were imaged for whole-body bioluminescence every 7 days for 3 weeks. Shown are representative IVIS images (A) and whole animal photon counts (B) for 9 mice total/treatment condition. (C) Percentage of donor-derived cells in recipient mice 2 weeks after transplantation of GFP^+ HSCs with or without TWS119. *P<0.001. (D) Average frequency of donor-derived GFP^+ B cells, T cells, and myeloid cells in recipient mice 3 months after transplantation. 5 mice/group were analyzed.
We further examined the utility of this delivery approach in the context of hematopoietic stem cell transplantations. We treated C57Bl/6 F-luc-transgenic mice or C57Bl/6 GFP-transgenic mice with 5-fluorouracil (5-FU, Sigma Aldrich) (150 mg/kg, i.p) and euthanized them 3 days later. […]

Series [2] can be described thus: Release of cargo from lipid-coated DNA-gel nanoparticles (data not shown). It is filed as physicochemical. The settings on record: lipid-coated DNA-gel particles ~200 nm.
For series [3] the following is noted: systemic, delivered orally, humans; cited from earlier work.
The conditions of series [4]: cited from earlier work.
The conditions of series [5]: systemically injected; cited from earlier work.
A short description of series [6]: Kinetics of protein release from lipid-coated PLGA particles in vitro (ELISA of supernatant). It is filed as physicochemical. The settings on record: complete RPMI 10% FCS, 37° C., by the end of the incubation period (~1 week). The procedure: FIGS. 5A-C. Protein and TLR ligand incorporation in lipid-coated PLGA nanoparticles. (A) Confocal image (left) and cryoEM image (right) of lipid-coated nanoparticles loaded with fluorescent ova in the particle cores. Note that the particles in the confocal image are artificially aggregated here by drying on a coverslip for imaging. (B) Kinetics of IL-15 release from lipid-coated PLGA particles in vitro in complete medium at 37° C. (C) Bone marrow-derived DCs were incubated with 3 mg/mL lipid-nanoparticles containing 1 mole % or 10 mole % MPLA in the lipid coating, equivalent amounts of soluble MPLA (30 μg/mL or 3 μg/mL), or soluble LPS (1 μg/mL) as a positive control. At 24 hrs, the maturation status of the cells was assessed by flow cytometry analysis of cell surface MHC II, CD80, and CD40 (not shown).
Ova however is a model globular protein and as such it was chosen to illustrate the behavior of other proteins such as interleukin-15 (IL-15) superagonist molecules which can be used to support ACT T cells. […] The kinetics of IL-15 release from the particles was determined by incubating the particles in complete RPMI medium containing 10% FCS at 37° C. with gentle agitation and taking aliquots of the supernatant at staggered timepoints for ELISA analysis of cytokine content. […]

Consider `Nc1cccc(-c2cc3c(Oc4cccc(O)c4)ncnc3[nH]2)c1` [TWS119], for which, in series [1], the “engraftment kinetics / proliferative reconstitution of progenitor cell grafts” value is given as “did not significantly alter”. For the same compound, the “period of slow release from DNA-gel nanoparticles” value in series [2] was determined as 7 days.

For the compound `CC(C)Cn1cnc2c(N)nc3ccccc3c21` [imiquimod], the toxicity entry in series [3] is listed as “dose-limiting toxicity”. Further, the half-life following injection in series [4] is ~2 h.

As to “IL-15: Interleukin-15, cytokine; encapsulated alone in lipid-coated PLGA particles in b217”, the half life in series [5] is ~1 h. Besides, the encapsulated cytokine released in series [6] is ~80%.
